Test results reported in patent publication US20170121315A1, “HETEROBICYCLICALLY SUBSTITUTED 4-OXOBUTANE ACID DERIVATIVES AND USE THEREOF” (priority 2014, published 2017).

Columns and labels:
Format in all cases: biochemical
[1] = biological target: T1, MMP-9 (Homo sapiens, UniProt P14780); assay: In vitro MMP-9 inhibition test; details: human MMP-9
T1 construct: purchased R&D Systems 911-MP
Source text: (§1) The MMP-mediated amidolytic cleavage of a suitable peptide substrate leads to an increase in fluorescent light here too. The signal intensity of the fluorescent light is directly proportional to the enzyme activity. The active concentration of a test compound at which half the enzyme is inhibited (50% signal intensity of the fluorescent light) is reported as the IC50 value.
(§2) Recombinant MMP-9 (R&D Systems, 911-MP) is chemically activated in accordance with the manufacturer's instructions using APMA. 1 μl of the test compound to be analysed (as a solution in DMSO, suitable concentrations e.g. 1 nM to 30 μM) is pipetted into 24 μl of activated enzyme (final concentration e.g. 0.1 nM) in reaction buffer (50 mM Tris/HCl pH 7.5, 10 mM CaCl2, 150 mM NaCl, 0.05% Brij®-35) in a white 384-hole microtiter plate (MTP). The enzymatic reaction is started by adding the intramolecularly quenched Mca-Pro-Leu-Gly-Leu-Dpa(Dnp)-Ala-Arg-NH2 substrate (final concentration e.g. 10 μM; R&D Systems, ES-001), so as to result in a total test volume of 50 μl. The course of the MMP-9 reaction is measured by measuring the fluorescence intensity (excitation 320 nm, emission 410 nm) over a suitable period of time (e.g. over 120 min at a temperature of 32° C.).

[2] = biological target: T2, MMP-14 (Homo sapiens, UniProt P50281); assay: In vitro MMP-14 inhibition test; details: human MMP-14
T2 construct: purchased R&D Systems 918-MP
Source text: as §1
Recombinant MMP-14 (R&D Systems, 918-MP) is enzymatically activated in accordance with the manufacturer's instructions using recombinant furin (R&D Systems, 1503-SE). 1 μl of the test compound to be analysed (as a solution in DMSO, suitable concentrations e.g. 1 nM to 30 μM) is pipetted into 24 μl of activated enzyme (final concentration e.g. 0.5 nM) in reaction buffer (50 mM Tris/HCl pH 7.5, 10 mM CaCl2, 150 mM NaCl, 0.05% Brij®-35) in a white 384-hole microtiter plate (MTP). The enzymatic reaction is started by adding the intramolecularly quenched Mca-Lys-Pro-Leu-Gly-Leu-Dpa(Dnp)-Ala-Arg-NH2 substrate (final concentration e.g. 5 μM; R&D Systems, ES-010), so as to result in a total test volume of 50 μl. The course of the MMP-14 reaction is measured by measuring the fluorescence intensity (excitation 320 nm, emission 410 nm) over a suitable period of time (e.g. over 120 min at a temperature of 32° C.).

[3] = biological target: T3, MMP-8 (Homo sapiens, UniProt P22894); assay: In vitro MMP-8 inhibition test; details: human MMP-8
T3 construct: purchased R&D Systems 908-MP
T3 sequence (P22894 101-467): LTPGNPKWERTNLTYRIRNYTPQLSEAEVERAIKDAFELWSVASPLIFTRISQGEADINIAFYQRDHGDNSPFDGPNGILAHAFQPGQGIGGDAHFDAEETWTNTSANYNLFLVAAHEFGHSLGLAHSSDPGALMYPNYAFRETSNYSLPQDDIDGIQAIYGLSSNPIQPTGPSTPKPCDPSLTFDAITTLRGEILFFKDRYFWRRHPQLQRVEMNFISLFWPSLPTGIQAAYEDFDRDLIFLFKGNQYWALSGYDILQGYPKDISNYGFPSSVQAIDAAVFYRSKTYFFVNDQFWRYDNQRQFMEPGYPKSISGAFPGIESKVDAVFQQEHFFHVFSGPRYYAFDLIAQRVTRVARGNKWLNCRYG
Source text: as §1
as §2, with “MMP-8” for “MMP-9”, “908-MP)” for “911-MP)”, “0.5” for “0.1”

[4] = biological target: T4, MMP-2 (Homo sapiens, UniProt P08253); assay: In vitro MMP-2 inhibition test; details: human MMP-2
T4 construct: purchased R&D Systems 902-MP
T4 sequence (P08253 110-660): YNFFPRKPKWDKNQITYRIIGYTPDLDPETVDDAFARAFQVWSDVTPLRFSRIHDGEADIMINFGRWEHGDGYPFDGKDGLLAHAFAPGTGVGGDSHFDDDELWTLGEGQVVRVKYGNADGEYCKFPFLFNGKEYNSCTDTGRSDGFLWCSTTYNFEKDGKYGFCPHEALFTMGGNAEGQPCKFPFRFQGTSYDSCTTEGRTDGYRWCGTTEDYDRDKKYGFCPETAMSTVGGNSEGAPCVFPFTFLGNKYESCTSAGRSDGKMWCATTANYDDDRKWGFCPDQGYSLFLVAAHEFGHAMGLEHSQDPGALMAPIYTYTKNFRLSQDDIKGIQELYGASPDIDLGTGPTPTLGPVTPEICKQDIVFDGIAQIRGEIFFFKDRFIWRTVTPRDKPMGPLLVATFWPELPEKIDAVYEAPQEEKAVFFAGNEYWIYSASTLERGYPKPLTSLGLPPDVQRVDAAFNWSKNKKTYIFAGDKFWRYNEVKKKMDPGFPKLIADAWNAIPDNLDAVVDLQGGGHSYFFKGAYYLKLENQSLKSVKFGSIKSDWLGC
Source text: as §1
as §2, with “MMP-2” for “MMP-9”, “902-MP)” for “911-MP)”, “2” for “0.1”

T1 sequence (P14780 107-707 limits assumed): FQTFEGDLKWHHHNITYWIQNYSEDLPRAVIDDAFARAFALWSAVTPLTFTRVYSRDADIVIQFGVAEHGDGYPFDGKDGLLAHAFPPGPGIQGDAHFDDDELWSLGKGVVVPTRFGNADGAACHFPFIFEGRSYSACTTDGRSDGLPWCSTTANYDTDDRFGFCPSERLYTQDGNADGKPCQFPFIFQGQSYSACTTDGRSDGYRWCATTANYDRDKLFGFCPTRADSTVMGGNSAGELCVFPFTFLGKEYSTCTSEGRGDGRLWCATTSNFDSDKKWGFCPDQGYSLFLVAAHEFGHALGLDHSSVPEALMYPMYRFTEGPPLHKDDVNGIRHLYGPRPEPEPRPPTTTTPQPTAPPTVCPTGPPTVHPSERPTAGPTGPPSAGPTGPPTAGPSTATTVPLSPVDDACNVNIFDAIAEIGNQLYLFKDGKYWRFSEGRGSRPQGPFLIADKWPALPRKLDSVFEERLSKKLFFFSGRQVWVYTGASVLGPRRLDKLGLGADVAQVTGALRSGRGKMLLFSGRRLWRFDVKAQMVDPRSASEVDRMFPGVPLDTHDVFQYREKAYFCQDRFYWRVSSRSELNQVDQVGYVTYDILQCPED

| SMILES | IC50 [1] [nM] | IC50 [2] [nM] | IC50 [3] [nM] | IC50 [4] [nM] |
| --- | --- | --- | --- | --- |
| O=C(CC(CCn1nnc2ccccc2c1=O)C(=O)O)c1cc2cc(OCCCc3ccccc3)ccc2o1 (racemic) [Example 37, (+/−)-4-Oxo-2-[2-(4-oxo-1,2,3-benzotriazin-3(4H)-yl)ethyl]-4-[5-(3-phenylpropoxy)-1-benzofur-2-yl]butanoic acid] | 17000 | > 40000 | 12000 | 3300 |
| O=C(CC(CCn1nnc2ccccc2c1=O)C(=O)O)c1cc2cc(OCCC3CCOCC3)ccc2o1 (racemic) [Example 6, (+/−)-4-Oxo-2-[2-(4-oxo-1,2,3-benzotriazin-3(4H)-yl)ethyl]-4-{5-[2-(tetrahydro-2H-pyran-4-yl)ethoxy]-1-benzofur-2-yl}butanoic acid] | 3400 | 37000 | 3900 | 430 |
| O=C(CC(CCn1nnc2ccccc2c1=O)C(=O)O)c1cc2cc(OCCc3ccc(Cl)cc3)ccc2o1 (racemic) [Example 2, (+/−)-4-{5-[2-(4-Chlorophenyl)ethoxy]-1-benzofur-2-yl}-4-oxo-2-[2-(4-oxo-1,2,3-benzotriazin-3(4H)-yl)ethyl]butanoic acid] | 24000 | > 40000 | 14000 | 4600 |
| O=C(CC(CCn1nnc2ccccc2c1=O)C(=O)O)c1noc2cc(OCC3CC3)ccc12 (racemic) [Example 150, (+/−)-4-[6-(Cyclopropylmethoxy)-1,2-benzoxazol-3-yl]-4-oxo-2-[2-(4-oxo-1,2,3-benzotriazin-3(4H)-yl)ethyl]butanoic acid] | 650 | 900 | 400 | 510 |
| O=C(CC(CCn1nnc2ccccc2c1=O)C(=O)O)c1noc2cc(OCCc3ccccc3)ccc12 (racemic) [Example 144, (+/−)-4-Oxo-2-[2-(4-oxo-1,2,3-benzotriazin-3(4H)-yl)ethyl]-4-[6-(2-phenylethoxy)-1,2-benzoxazol-3-yl]butanoic acid] | 760 | 2500 | 2500 | 730 |
| O=C(CC(CCn1nnc2ccc(C(F)(F)F)cc2c1=O)C(=O)O)c1noc2cc(OCC3CCOCC3)ccc12 (racemic) [Example 155, (+/−)-4-Oxo-2-{2-[4-oxo-6-(trifluoromethyl)-1,2,3-benzotriazin-3(4H)-yl]ethyl}-4-[6-(tetrahydro-2H-pyran-4-ylmethoxy)-1,2-benzoxazol-3-yl]butanoic acid] | 2800 | > 40000 | 82 | 4500 |
| CCCCCOc1ccc2c(C(=O)CC(CCn3nnc4ccccc4c3=O)C(=O)O)coc2c1 (single isomer, unassigned) [Example 91, 4-Oxo-2-[2-(4-oxo-1,2,3-benzotriazin-3(4H)-yl)ethyl]-4-[6-(pentyloxy)-1-benzofur-3-yl]butanoic acid] | 41 | 4000 | 940 | 96 |
| O=C(CC(CCn1nnc2ccccc2c1=O)C(=O)O)c1cc2ccc(OCC3CC3)cc2s1 (single isomer, unassigned; (+)) [Example 112, (+)-4-[6-(Cyclopropylmethoxy)-1-benzothiophen-2-yl]-4-oxo-2-[2-(4-oxo-1,2,3-benzotriazin-3(4H)-yl)ethyl]butanoic acid] | 590 | 2800 | 240 | 220 |
| O=C(CC(CCn1nnc2ccccc2c1=O)C(=O)O)c1cc2ccc(OCCc3ccccc3)cc2o1 (racemic) [Example 73, (+/−)-4-Oxo-2-[2-(4-oxo-1,2,3-benzotriazin-3(4H)-yl)ethyl]-4-[6-(2-phenylethoxy)-1-benzofur-2-yl]butanoic acid] | 2200 | > 40000 | > 40000 | 1300 |
| NC(=O)c1cccc(COc2ccc3oc(C(=O)CC(CCn4nnc5ccccc5c4=O)C(=O)O)cc3c2)c1 (single isomer, unassigned; (+)) [Example 34, (+)-4-{5-[(3-Carbamoylbenzyl)oxy]-1-benzofur-2-yl}-4-oxo-2-[2-(4-oxo-1,2,3-benzotriazin-3(4H)-yl)ethyl]butanoic acid] | 38000 | 7900 | 4900 | 490 |
| CCCCCOc1ccc2c(C(=O)CC(CCn3nnc4ccccc4c3=O)C(=O)O)noc2c1 (racemic) [Example 140, (+/−)-4-Oxo-2-[2-(4-oxo-1,2,3-benzotriazin-3(4H)-yl)ethyl]-4-[6-(pentyloxy)-1,2-benzoxazol-3-yl]butanoic acid] | 43 | 3400 | 570 | 95 |
| O=C(CC(CCn1nnc2ccccc2c1=O)C(=O)O)c1cc2cc(OCCc3ccccc3)ccc2o1 (single isomer, unassigned; (+)) [Example 21, (+)-4-Oxo-2-[2-(4-oxo-1,2,3-benzotriazin-3(4H)-yl)ethyl]-4-[5-(2-phenylethoxy)-1-benzofur-2-yl]butanoic acid] | 5600 | 30000 | 14000 | 1900 |
| CCCCCCCOc1ccc2c(C(=O)CC(CCn3nnc4ccccc4c3=O)C(=O)O)coc2c1 (racemic) [Example 101, (+/−)-4-[6-(Heptyloxy)-1-benzofur-3-yl]-4-oxo-2-[2-(4-oxo-1,2,3-benzotriazin-3(4H)-yl)ethyl]butanoic acid] | 420 | > 40000 | 12000 | 660 |
| O=C(O)[C@@H]1[C@@H](Cn2nnc3ccc(C(F)(F)F)cc3c2=O)CC[C@H]1C(=O)c1cc2cc(OCCc3ccccc3)ccc2o1 (single isomer, unassigned; enantiomer 2) [Example 159, (+)-(1RS,2SR,5RS)-2-{[4-Oxo-6-(trifluoromethyl)-1,2,3-benzotriazin-3(4H)-yl]methyl}-5-{[5-(2-phenylethoxy)-1-benzofur-2-yl]carbonyl}cyclopentanecarboxylic acid (enantiomer 2)] | 680 | 2600 | 310 | 1700 |
